# Measured values reported in ChEMBL document CHEMBL2401653, “Synthesis, structure-property relationships and pharmacokinetic evaluation of ethyl 6-aminonicotinate sulfonylureas as antagonists of the P2Y₁₂ receptor” (Eur J Med Chem, 2013).
# What was measured:
# [1] = Aqueous solubility of the compound; type: physicochemical; settings: buffer
# [2] = Stability of the compound in MeCN assessed as compound remaining at room temperature; type: physicochemical
# [3] = 1-octanol-phosphate buffer distribution coefficient, log D of the compound at pH 7.4 after 2 days by shake flask method; type: physicochemical
# P2Y purinoceptor 12 [4] = molecular target: T1, P2Y purinoceptor 12 (Homo sapiens, UniProt Q9H244)
# T1 sequence (Q9H244 whole entry): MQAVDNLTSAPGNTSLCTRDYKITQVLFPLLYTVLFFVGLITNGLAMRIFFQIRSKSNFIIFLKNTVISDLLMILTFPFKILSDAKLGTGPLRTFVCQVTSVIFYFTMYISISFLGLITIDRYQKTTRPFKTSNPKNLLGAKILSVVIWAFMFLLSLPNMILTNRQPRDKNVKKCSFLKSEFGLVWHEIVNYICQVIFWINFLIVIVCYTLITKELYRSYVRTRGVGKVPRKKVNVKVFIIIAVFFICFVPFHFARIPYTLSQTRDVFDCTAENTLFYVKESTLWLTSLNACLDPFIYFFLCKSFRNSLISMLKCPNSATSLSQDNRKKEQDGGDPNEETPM
# P2Y purinoceptor 12 [5] = molecular target: T1, P2Y purinoceptor 12; remark: listed apart in the source
# Description: Displacement of [125I]-AZ11931285 from P2Y12 receptor (unknown origin) after 1 hr by scintillation counting analysis
# physchem [6] = settings: HBSS buffer, pH 6.8
# Description: Kinetic solubility in HBSS buffer at pH 6.8 after 16 hrs by LC-UV/MS analysis
# [7] = Stability of the compound in MeCN assessed as compound remaining at 5 degC after 4 months; type: physicochemical; settings: read-out: Stability
# Liver microsomes [8] = test: Metabolic stability in rat liver microsomes at 1 umol/L by LC/MS analysis in absence of NADPH; type: ADME, Microsome; settings: 1 µM
# Liver microsomes [9] = test: Metabolic stability in human liver microsomes at 1 umol/L by LC/MS analysis in absence of NADPH; type: ADME, Microsome; settings: 1 µM
# [10] = Apparent Permeability across apical to basolateral side in human Caco2 cells at 1 to 10 uM measured at 30 to 90 mins by LC/MS analysis; type: ADME, cell-based; settings: Caco-2
# [11] = Half life in po dosed rat; type: ADME, organism-based; settings: in vivo
# [12] = Half life in iv dosed rat; type: ADME, organism-based; settings: in vivo
# [13] = Oral bioavailability in rat; type: ADME, organism-based; settings: in vivo
# [14] = Clearance in iv dosed rat; type: ADME, organism-based; settings: in vivo
# Liver microsomes [15] = test: Intrinsic clearance in human liver microsomes at 1 umol/L by LC/MS analysis in presence of NADPH; type: ADME, Microsome; settings: 1 µM
# Liver microsomes [16] = test: Intrinsic clearance in rat liver microsomes at 1 umol/L by LC/MS analysis in presence of NADPH; type: ADME, Microsome; settings: 1 µM
# Plasma = test: Metabolic stability in rat plasma by HRMS analysis; type: ADME, cell-free
# [17] = Fraction unbound in human plasma; type: ADME, cell-free
# [18] = Stability of the compound in EtOH at room temperature after 21 days by LC/MS analysis; type: physicochemical; settings: 504 h
# [19] = Stability of the compound in MeCN at room temperature after 21 days by LC/MS analysis; type: physicochemical; settings: 504 h
# physchem [20] = settings: HBSS buffer, pH 7.4
# Description: Kinetic solubility in HBSS buffer at pH 7.4 after 16 hrs by LC-UV/MS analysis
Stability [2],logD at 48 h [3],IC50 (P2Y purinoceptor 12 [4]) [nM],IC50 (P2Y purinoceptor 12 [5]) [nM],Stability (Liver microsomes [8]),Stability (Liver microsomes [9]),Papp A→B at up to 10 µM [10] [×10⁻⁶ cm/s],Intrinsic clearance (CLint) (Liver microsomes [15]) [µL/min/mg],Intrinsic clearance (Liver microsomes [16]) [µL/min/mg],Structure (SMILES),also measured
Stable,5,–,–,–,–,–,–,–,CCOC(=O)c1cc(C#N)c(N2CCN(C(=O)Nc3ccccc3)CC2)nc1C(F)(F)F,solubility [1]: < 0.1 µM
Stable,5,510,1300,–,–,–,–,–,CCOC(=O)c1cc(C#N)c(N2CCN(C(=O)NCCc3cccs3)CC2)nc1C(F)(F)F,solubility kinetic at 16 h (physchem [6]): 15 µM
Stable,1.1,39,79,Stable,Stable,0.076,–,–,CCOC(=O)c1cc(C#N)c(N2CCN(C(=O)NS(=O)(=O)c3ccc(Cl)s3)CC2)nc1C(F)(F)F,remaining at 2922 h [7]: 10%
Stable,1.3,90,120,–,–,0.22,> 70,> 104,CCOC(=O)c1cc(C#N)c(N2CCN(C(=O)NS(=O)(=O)c3ccc(C)cc3)CC2)nc1C(F)(F)F,remaining at 2922 h [7]: 52%; half-life [11]: 0.65 h; half-life [12]: 1.5 h; bioavailability [13]: 20%; clearance [14]: 89 mL/min/kg
Stable,0.9,100,90,Stable,Stable,0.11,> 70,> 104,CCOC(=O)c1cnc(N2CCN(C(=O)NS(=O)(=O)c3ccc(Cl)s3)CC2)c(Cl)c1,half-life [11]: 2.4 h; half-life [12]: 0.92 h; bioavailability [13]: 15%; clearance [14]: 36 mL/min/kg; Stability (Plasma): Unstable; fraction unbound [17]: < 0.015
Stable,1.3,380,520,–,–,1.2,> 70,> 104,CCOC(=O)c1cnc(N2CCN(C(=O)NS(=O)(=O)c3ccc(Cl)cc3)CC2)c(Cl)c1,Stability [18]: Unstable; Stability [19]: Stable
Stable,0.8,–,–,–,–,0.11,–,> 104,CCOC(=O)c1cc(C#N)c(N2CC(NC(=O)NS(=O)(=O)c3ccc(Cl)s3)C2)nc1C,solubility [1]: 83 µM
Stable,0.8,380,430,Stable,Stable,3.9,–,–,CCOC(=O)c1cnc(N2CC(NC(=O)NS(=O)(=O)c3ccccc3)C2)c(Cl)c1,Stability [18]: Stable; Stability [19]: Stable; half-life [11]: 2.1 h; half-life [12]: 0.17 h; bioavailability [13]: 20%; clearance [14]: 29 mL/min/kg; Stability (Plasma): Unstable; fraction unbound [17]: < 0.015
Stable,1.5,3200,4800,–,–,–,–,–,CCOC(=O)c1cnc(N2CCC(NC(=O)NS(=O)(=O)c3ccccc3)CC2)c(Cl)c1,Stability [18]: Unstable; Stability [19]: Stable
Stable,1,34,42,Stable,Stable,0.058,> 70,> 104,CCOC(=O)c1cc(C#N)c(N2CCN(C(=O)NS(=O)(=O)c3ccc(Cl)s3)CC2)nc1C,solubility [1]: 90 µM
Stable,–,220,180,Stable,Stable,0.28,> 70,> 104,CCOC(=O)c1cnc(N2CCN(C(=O)NS(=O)(=O)c3ccccc3)CC2)c(Cl)c1,solubility kinetic at 16 h (physchem [6]): 100 µM
Stable,–,260,150,–,–,–,> 70,> 104,CCOC(=O)c1cnc(N2CCN(C(=O)NS(=O)(=O)c3ccccc3C)CC2)c(Cl)c1,solubility kinetic at 16 h (physchem [20]): 210 µM
Stable,–,300,300,–,–,2.5,> 70,> 104,CCOC(=O)c1cnc(N2CCN(C(=O)NS(=O)(=O)c3ccc(C)cc3)CC2)c(Cl)c1,Stability [18]: Unstable; Stability [19]: Stable; solubility kinetic at 16 h (physchem [20]): 490 µM
Stable,–,2200,680,–,–,–,–,–,CCOC(=O)c1cnc(N2CCN(C(=O)Nc3ccccc3)CC2CCC(=O)O)c(Cl)c1 (racemic),solubility kinetic at 16 h (physchem [6]): 96 µM
